This passage reports IC50 results from ChEMBL document CHEMBL1134083, “Discovery of a nuclease-resistant, non-natural dinucleotide that inhibits HIV-1 integrase” (Bioorg Med Chem Lett, 2001).

In experiment [1] the target is T1, Human immunodeficiency virus type 1 integrase (Human immunodeficiency virus 1, UniProt Q7ZJM1). Description: Inhibitory concentration required against recombinant wild type HIV integrase by reproducible assay (3' processing).
In experiment [2] the target is T1, Human immunodeficiency virus type 1 integrase. Description: Inhibitory concentration required against recombinant wild type HIV integrase by reproducible assay (Strand transfer).

T1 sequence (Q7ZJM1 whole entry): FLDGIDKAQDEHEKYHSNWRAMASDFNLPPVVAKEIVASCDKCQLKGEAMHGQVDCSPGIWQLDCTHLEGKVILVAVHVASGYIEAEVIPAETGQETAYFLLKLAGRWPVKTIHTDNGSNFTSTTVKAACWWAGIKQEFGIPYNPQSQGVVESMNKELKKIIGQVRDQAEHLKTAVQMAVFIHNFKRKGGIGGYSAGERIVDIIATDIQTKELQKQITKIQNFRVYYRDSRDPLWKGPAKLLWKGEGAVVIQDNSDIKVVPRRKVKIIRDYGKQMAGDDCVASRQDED

The IC50 is the concentration that inhibits the measured activity by half. As to `Nc1ccn([C@H]2C[C@H](OP(=O)(O)OC[C@H]3OC[C@@H](n4ccc(=O)[nH]c4=O)[C@@H]3O)[C@@H](COP(=O)(O)O)O2)c(=O)n1`, the IC50 in experiment [1] came out at 7.5 µM; in experiment [2] it was 5.9 µM.
